What is called IC50 is the point on the concentration scale where inhibition reaches its midpoint.

Experimental findings from US20240360139A1, “BLOOD BRAIN BARRIER PENETRATING SELECTIVE INHIBITORS OF ROCK2 PROTEIN KINASES AND USES THEREOF” (GENOSCO Inc., priority 2023, published 2024) are described below.

SMILES strings stand for the structures. Structures can show the parent of a compound that is named as a salt. Bounds are passed on as bounds.

Assay [1] has as its target T1, Recombinant ROCK2 (amino acids 5-554) (Homo sapiens, UniProt O75116).
T1 construct: ROCK2 (amino acids 5-554)
Briefly: ROCK inhibition assay, LANCE Ultra TR-FRET (ROCK2). It is filed as biochemical. To be noted: 1 mM of ATP. The method, then:
(§1) Kinase IC50 was determined through an in vitro assay based on LANCE Ultra TR-FRET (Time-Resolved Fluorescence Resonance Energy Transfer) homogeneous technologies method 5 (Perkin Elmer). Recombinant ROCK1 (amino acids 1-477) and ROCK2 (amino acids 5-554) proteins were purchased from Carna Biosciences and SignalChem. Compound activities were measured by Envision and IC50s were calculated. The assays were performed in white LUMITRAC™ 200 96 well half-area microplates from Greiner Bio-One. The kinase reaction buffer consisted of 50 mM HEPES pH 7.5, 1 mM EGTA, 10 mM MgCl2, 2 mM DTT and 0.01% 10 Tween-20. Kinases were incubated with 50 nM (ULight-CREBtide) substrate in the presence of 1 mM (ROCK1) or 1 mM (ROCK2) of ATP. The kinase reaction was carried out for 1 hour before addition of a stopping buffer to a final of 10 mM EDTA and 0.6 nM of LANCE Ultra Europium anti-phospho-CREB (Ser133) antibody (PerkinElmer TRF0200) in LANCE detection buffer. All assay incubations were performed at room temperature, and the microplates were sealed with polyester film during that time. The reaction was incubated for 1 hour, and the signal was read in Envision in TR-FRET mode (excitation at 320 nm and emission at 615/665 nm).
(§2) As used herein, a way to describe potency of inhibitory activity (nM) is a value of inhibitory activity at 50% (IC50).

Assay [2] has as its target T2, Recombinant ROCK1 (amino acids 1-477) (Homo sapiens, UniProt Q13464).
T2 construct: Recombinant ROCK1 (amino acids 1-477)
Briefly: ROCK inhibition assay, LANCE Ultra TR-FRET (ROCK1). The assay is classed as biochemical. The settings on record: 1 mM of ATP. The method, then: as §1, §2
(In TR-FRET formats the signal depends on donor and acceptor labels being close together.)

T2 sequence (Q13464 1-477): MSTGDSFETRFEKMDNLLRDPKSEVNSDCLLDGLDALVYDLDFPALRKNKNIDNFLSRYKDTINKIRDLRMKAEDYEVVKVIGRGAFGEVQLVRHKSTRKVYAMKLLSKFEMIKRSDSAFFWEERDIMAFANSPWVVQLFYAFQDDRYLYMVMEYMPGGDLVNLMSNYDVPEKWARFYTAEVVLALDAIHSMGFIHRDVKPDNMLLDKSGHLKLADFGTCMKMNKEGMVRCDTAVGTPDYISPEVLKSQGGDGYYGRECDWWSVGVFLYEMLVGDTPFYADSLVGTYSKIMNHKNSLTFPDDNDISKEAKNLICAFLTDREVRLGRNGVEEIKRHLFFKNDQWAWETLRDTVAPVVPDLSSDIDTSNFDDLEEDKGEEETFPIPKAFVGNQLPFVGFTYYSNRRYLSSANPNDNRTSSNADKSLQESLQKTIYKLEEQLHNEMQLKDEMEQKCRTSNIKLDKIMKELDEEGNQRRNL
T1 sequence (O75116 5-554): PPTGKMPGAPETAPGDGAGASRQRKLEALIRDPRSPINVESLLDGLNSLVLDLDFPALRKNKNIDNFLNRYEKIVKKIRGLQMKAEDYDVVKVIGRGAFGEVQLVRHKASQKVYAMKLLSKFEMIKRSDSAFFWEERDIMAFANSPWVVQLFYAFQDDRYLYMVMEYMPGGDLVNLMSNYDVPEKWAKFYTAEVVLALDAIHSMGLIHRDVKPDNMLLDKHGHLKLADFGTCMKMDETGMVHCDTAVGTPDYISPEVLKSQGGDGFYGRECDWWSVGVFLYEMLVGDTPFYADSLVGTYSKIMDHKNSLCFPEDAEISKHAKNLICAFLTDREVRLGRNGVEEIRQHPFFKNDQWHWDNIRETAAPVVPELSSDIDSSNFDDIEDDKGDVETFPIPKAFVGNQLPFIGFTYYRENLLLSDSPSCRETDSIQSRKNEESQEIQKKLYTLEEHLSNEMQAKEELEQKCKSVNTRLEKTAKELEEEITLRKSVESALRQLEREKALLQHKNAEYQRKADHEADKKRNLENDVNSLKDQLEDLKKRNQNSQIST

Turning to `COc1[nH]ncc1-c1cc2c(cn1)c(C(=O)C1COc3ccc(Cl)cc3C1)cn2CCN(C)C` (stereo not drawn) [Compound 1-1, (6-chlorochroman-3-yl)-[1-[2-(dimethylamino)ethyl]-6-(3-methoxy-1H-pyrazol-4-yl)pyrrolo[3,2-c]pyridin-3-yl]methanone], the IC50 in assay [1] is 21 to 200 nM; in assay [2], above 501 nM.
As to `COc1[nH]ncc1-c1cc2c(cn1)c(C(=O)C1COc3ccc(Cl)cc3C1)cn2CCN(C)C` (stereo not drawn) [Compound 1-2, (6-chlorochroman-3-yl)(1-(2-(dimethylamino)ethyl)-6-(5-methoxy-1H-pyrazol-4-yl)-1H-pyrrolo[3,2-c]pyridin-3-yl)methanone dihydrochloride], the IC50 in assay [1] is 21 to 200 nM; in assay [2], above 501 nM.
As for `COc1[nH]ncc1-c1cc2c(cn1)c(C(=O)C1COc3ccc(Cl)cc3C1)cn2CCN(C)C` (stereo not drawn) [Compound 1-3, (6-chlorochroman-3-yl)(1-(2-(dimethylamino)ethyl)-6-(5-methoxy-1H-pyrazol-4-yl)-1H-pyrrolo[3,2-c]pyridin-3-yl)methanone dimethanesulfonic acid], the IC50 was 21 to 200 nM in assay [1] and above 501 nM in assay [2].
In the case of `COc1ccc2c(c1)C[C@H](C(=O)c1cn(C[C@@H]3CCN3C)c3cc(-c4cn[nH]c4Cl)ncc13)CO2` [Compound 1-4], the results for the concentration for half-maximal inhibition (IC50) in assay [1] and in assay [2] were below 20 nM and above 501 nM, respectively.
With `COc1[nH]ncc1-c1ccc2c(C(=O)C3COc4ccc(Cl)cc4C3)cn(CCN(C)C)c2n1` (stereo not drawn) [Compound 1-8], the concentration for half-maximal inhibition (IC50) in assay [1] was 201 to 500 nM; in assay [2], above 501 nM.
For `CN(C)CCn1cc(C(=O)C2COc3ccc(Cl)cc3C2)c2ccc(-c3c[nH]nc3Cl)nc21` (stereo not drawn) [Compound 1-9], the IC50 in assay [1] was 21 to 200 nM; in assay [2], 201 to 500 nM.
For `CN(C)CCn1cc(C(=O)C2COc3ccc(F)cc3C2)c2ccc(-c3c[nH]nc3Cl)nc21` (stereo not drawn) [Compound 1-10] the same measures were 21 to 200 nM and above 501 nM.
For `CN(C)CCn1cc(C(=O)C2COc3ccc(Cl)cc3C2)c2cnc(-c3c[nH]nc3Cl)cc21` (stereo not drawn) [Compound 1-11], in that order: above 501 nM and above 501 nM.
Consider `CN(C)CCn1cc(C(=O)C2COc3ccc(F)cc3C2)c2cnc(-c3c[nH]nc3Cl)cc21` (stereo not drawn) [Compound 1-12], for which the results for the IC50 in assay [1] and in assay [2] were 201 to 500 nM and above 501 nM, respectively.
For `COc1ccc2c(c1)CC(C(=O)c1cn(CCN(C)C)c3nc(-c4c[nH]nc4Cl)ccc13)CO2` (stereo not drawn) [Compound 1-13] the same measures were below 20 nM and above 501 nM.
On to `COc1ccc2c(c1)CC(C(=O)c1cn(CCN(C)C)c3cc(-c4c[nH]nc4Cl)ncc13)CO2` (stereo not drawn) [Compound 1-14], for which the results for the IC50 in assay [1] and in assay [2] were 201 to 500 nM and above 501 nM, respectively.
With `O=C(c1cn(C2CNC2)c2cc(-c3c[nH]nc3Cl)ncc12)C1COc2ccc(F)cc2C1` (stereo not drawn) [Compound 1-15], the IC50 in assay [1] was 21 to 200 nM; in assay [2], above 501 nM.
For the molecule `CN(C)CCn1cc(C(=O)C2COc3ccc(Cl)cc3C2)c2ccc(-c3cn[nH]c3F)nc21` (stereo not drawn) [Compound 1-16], the IC50 in assay [1] and in assay [2] was above 501 nM throughout.
In the case of `CN(C)CCn1cc(C(=O)C2COc3ccc(Cl)cc3C2)c2ccc(-c3c[nH]nc3Cl)cc21` (stereo not drawn) [Compound 1-17], the IC50 in assay [1] was 21 to 200 nM; in assay [2], above 501 nM.
With `COc1[nH]ncc1-c1ccc2c(C(=O)C3COc4ccc(Cl)cc4C3)cn(C3CNC3)c2c1` (stereo not drawn) [Compound 1-18], the values for the IC50 in assay [1] and in assay [2] were 21 to 200 nM and above 501 nM, respectively.
For `COc1[nH]ncc1-c1ccc2c(C(=O)C3COc4ccc(Cl)cc4C3)cn(CC3CCCN3C)c2c1` (stereo not drawn) [Compound 1-19], the IC50 in assay [1] is 21 to 200 nM; in assay [2], above 501 nM.
Turning to `CN1CCCC1Cn1cc(C(=O)C2COc3ccc(Cl)cc3C2)c2ccc(-c3cn[nH]c3Cl)cc21` (stereo not drawn) [Compound 1-20], the IC50 in assay [1] and in assay [2] was above 501 nM throughout.
Take `O=C(c1cn(CC2CNC2)c2cc(-c3cn[nH]c3Cl)ccc12)C1COc2ccc(Cl)cc2C1` (stereo not drawn) [Compound 1-21]: the IC50 in assay [1] and in assay [2] was below 20 nM throughout.
Take `COc1[nH]ncc1-c1ccc2c(C(=O)C3COc4ccc(Cl)cc4C3)cn(CC3CNC3)c2c1` (stereo not drawn) [Compound 1-22]: the IC50 in assay [1] and in assay [2] was below 20 nM each time.
As to `CN(C)CCn1cc(C(=O)C2COc3ccc(F)cc3C2)c2ccc(-c3cn[nH]c3F)cc21` (stereo not drawn) [Compound 1-23], the IC50 in assay [1] was 21 to 200 nM; in assay [2], above 501 nM.
Regarding `CN(C)CCn1cc(C(=O)C2COc3ccc(Cl)cc3C2)c2ccc(-c3cn[nH]c3F)cc21` (stereo not drawn) [Compound 1-24], the results for the concentration for half-maximal inhibition (IC50) in assay [1] and in assay [2] were 21 to 200 nM and above 501 nM, respectively.
For `CN(C)CCn1cc(C(=O)[C@@H]2COc3ccc(Cl)cc3C2)c2ccc(-c3cn[nH]c3F)cc21` [Compound 1-25], in that order: 21 to 200 nM and 201 to 500 nM.
For `CN(C)CCn1cc(C(=O)[C@@H]2COc3ccc(Cl)cc3C2)c2ccc(-c3cn[nH]c3F)cc21` [Compound 1-26], in that order: below 20 nM and 201 to 500 nM.
Consider `CN1CCCC1Cn1cc(C(=O)C2COc3ccc(Cl)cc3C2)c2ccc(-c3cn[nH]c3F)cc21` (stereo not drawn) [Compound 1-27], for which the IC50 in assay [1] and in assay [2] was 201 to 500 nM each time.
`COc1[nH]ncc1-c1ccc2c(C(=O)C3COc4ccc(Cl)cc4C3)cn(C[C@H]3CCCN3C)c2c1` (stereo partly drawn) [Compound 1-28]: the IC50 in assay [1] and in assay [2] was above 501 nM each time.
For `COc1[nH]ncc1-c1ccc2c(C(=O)C3COc4ccc(Cl)cc4C3)cn(C[C@@H]3CCCN3C)c2c1` (stereo partly drawn) [Compound 1-29], the results for the IC50 in assay [1] and in assay [2] were 21 to 200 nM and 201 to 500 nM, respectively.
Consider `O=C(c1cn(CC2CCN2)c2cc(-c3cn[nH]c3F)ccc12)C1COc2ccc(Cl)cc2C1` (stereo not drawn) [Compound 1-30], for which the half-inhibitory concentration (IC50) in assay [1] is below 20 nM; in assay [2], above 501 nM.
For `O=C(c1cn(CC2CCN2)c2cc(-c3cn[nH]c3Cl)ccc12)C1COc2ccc(Cl)cc2C1` (stereo not drawn) [Compound 1-31], in that order: 21 to 200 nM and above 501 nM.
As to `COc1[nH]ncc1-c1ccc2c(C(=O)C3COc4ccc(Cl)cc4C3)cn(CC3CCN3)c2c1` (stereo not drawn) [Compound 1-32], the concentration for half-maximal inhibition (IC50) in assay [1] is below 20 nM; in assay [2], above 501 nM.
For `CN(C)CCn1cc(C(=O)C2COc3ccc(Cl)cc3C2)c2cnc(-c3cn[nH]c3Cl)nc21` (stereo not drawn) [Compound 1-33] the same measures were above 501 nM and above 501 nM.
For `CN(C)CCn1cc(C(=O)C2COc3ccc(Cl)cc3C2)c2cnc(-c3cn[nH]c3F)nc21` (stereo not drawn) [Compound 1-34], in that order: 201 to 500 nM and above 501 nM.
For the molecule `COc1ccc2c(c1)CC(C(=O)c1cn(C[C@H]3CCN3)c3cc(-c4cn[nH]c4Cl)ccc13)CO2` (stereo partly drawn) [Compound 1-35], the IC50 in assay [1] is below 20 nM; in assay [2], 21 to 200 nM.
For the molecule `COc1ccc2c(c1)CC(C(=O)c1cn(C[C@@H]3CCN3)c3cc(-c4cn[nH]c4Cl)ccc13)CO2` (stereo partly drawn) [Compound 1-36], the IC50 was below 20 nM in assay [1] and 201 to 500 nM in assay [2].
For `COc1ccc2c(c1)CC(C(=O)c1cn(C[C@@H]3CCN3)c3cc(-c4cn[nH]c4F)ccc13)CO2` (stereo partly drawn) [Compound 1-37] the same measures were below 20 nM and above 501 nM.
For `COc1ccc2c(c1)CC(C(=O)c1cn(C[C@H]3CCN3)c3cc(-c4cn[nH]c4F)ccc13)CO2` (stereo partly drawn) [Compound 1-38] the same measures were below 20 nM and 201 to 500 nM.
Take `O=C(c1cn(C[C@H]2CCN2)c2cc(-c3cn[nH]c3Cl)ccc12)C1COc2ccc(Cl)cc2C1` (stereo partly drawn) [Compound 1-39]: the IC50 in assay [1] was 21 to 200 nM; in assay [2], above 501 nM.
Take `O=C(c1cn(C[C@H]2CCN2)c2cc(-c3cn[nH]c3F)ccc12)C1COc2ccc(Cl)cc2C1` (stereo partly drawn) [Compound 1-40]: the IC50 was below 20 nM in assay [1] and above 501 nM in assay [2].
For `COc1ccc2c(c1)CC(C(=O)c1cn(C[C@@H]3CCN3)c3cc(-c4cn[nH]c4OC)ccc13)CO2` (stereo partly drawn) [Compound 1-41] the same measures were below 20 nM and 201 to 500 nM.
On to `COc1ccc2c(c1)CC(C(=O)c1cn(C[C@H]3CCN3)c3cc(-c4cn[nH]c4OC)ccc13)CO2` (stereo partly drawn) [Compound 1-42], for which the IC50 in assay [1] was below 20 nM; in assay [2] it was 201 to 500 nM.
For `CN1CC(Cn2cc(C(=O)C3COc4ccc(Cl)cc4C3)c3ccc(-c4cn[nH]c4F)cc32)C1` (stereo not drawn) [Compound 1-43] the same measures were below 20 nM and 21 to 200 nM.
On to `COc1[nH]ncc1-c1ccc2c(C(=O)C3COc4ccc(Cl)cc4C3)cn(CC3CN(C)C3)c2c1` (stereo not drawn) [Compound 1-44], for which the IC50 was below 20 nM in assay [1] and above 501 nM in assay [2].
For `COc1ccc2c(c1)CC(C(=O)c1cn(C[C@H]3CCN3C)c3cc(-c4cn[nH]c4F)ccc13)CO2` (stereo partly drawn) [Compound 1-45], in that order: 21 to 200 nM and above 501 nM.
Take `COc1ccc2c(c1)CC(C(=O)c1cn(C[C@@H]3CCN3C)c3cc(-c4cn[nH]c4Cl)ccc13)CO2` (stereo partly drawn) [Compound 1-46]: the values for the IC50 in assay [1] and in assay [2] were 21 to 200 nM and above 501 nM, respectively.
As for `COc1[nH]ncc1-c1ccc2c(C(=O)[C@@H]3COc4ccc(F)cc4C3)cn(CCN(C)C)c2c1` [Compound 5-39], the IC50 in assay [2] is above 501 nM.
